Bridge positions count the residues as written; N and C are the ends. Peptide text beside a SMILES is read from it.
Tests used:
[1] = molecular target: T1, Potassium voltage-gated channel subfamily A member 3 (Homo sapiens, UniProt P22001); format: cell-based, CHO-K1
[2] = molecular target: T1, Potassium voltage-gated channel subfamily A member 3; assay: cell-based; set-up: species or system Blood
[3] = molecular target: T1, Potassium voltage-gated channel subfamily A member 3; set-up: species or system Blood

T1 sequence (P22001 whole entry): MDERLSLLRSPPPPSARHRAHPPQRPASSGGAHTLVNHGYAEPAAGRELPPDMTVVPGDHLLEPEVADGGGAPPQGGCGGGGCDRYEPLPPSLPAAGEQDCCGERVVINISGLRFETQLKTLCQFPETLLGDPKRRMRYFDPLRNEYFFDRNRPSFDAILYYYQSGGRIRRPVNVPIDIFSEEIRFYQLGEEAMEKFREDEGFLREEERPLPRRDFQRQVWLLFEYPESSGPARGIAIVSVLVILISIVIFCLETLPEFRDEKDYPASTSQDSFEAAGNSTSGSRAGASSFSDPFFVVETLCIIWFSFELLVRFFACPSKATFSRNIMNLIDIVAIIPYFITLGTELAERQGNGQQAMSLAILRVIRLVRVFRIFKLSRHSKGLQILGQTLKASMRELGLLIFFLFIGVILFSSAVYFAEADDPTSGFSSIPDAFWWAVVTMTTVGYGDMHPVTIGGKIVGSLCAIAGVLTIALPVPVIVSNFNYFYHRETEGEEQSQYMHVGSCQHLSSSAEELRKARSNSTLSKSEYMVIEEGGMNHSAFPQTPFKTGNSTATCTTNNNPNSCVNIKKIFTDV

SMILES | IC50 [1] | IC50 [2] | IC50 [3] | IC50 ([1]; cho-k1)
CC[C@H](C)[C@@H]1NC(=O)[C@@H](NC(=O)[C@H](CO)NC(=O)[C@@H](N)CCCNC(=N)N)CSSC[C@@H](C(=O)O)NC(=O)[C@H]([C@@H](C)O)NC(=O)CNC(=O)[C@@H]2CSSC[C@@H]3NC(=O)[C@H](CCC(N)=O)NC(=O)[C@H](Cc4ccccc4)NC(=O)[C@H](C)NC(=O)[C@H]([C@@H](C)O)NC(=O)[C@H](CSSC[C@H](NC(=O)[C@H](CCCCN)NC(=O)[C@H](CO)NC(=O)[C@H](CC(C)C)NC(=O)[C@H](CCCNC(=N)N)NC(=O)[C@H](Cc4ccc(O)cc4)NC(=O)[C@H](CCCCN)NC(=O)[C@H](CCSC)NC(=O)[C@H](CO)NC(=O)[C@H](Cc4cnc[nH]4)NC(=O)[C@H](CCCCN)NC3=O)C(=O)N[C@@H](CCCNC(=N)N)C(=O)N[C@@H](CCCCN)C(=O)N[C@@H]([C@@H](C)O)C(=O)N2)NC(=O)[C@H](CCCNC(=N)N)NC(=O)[C@H](CO)NC(=O)[C@H](CCCCN)NC(=O)[C@@H]2CCCN2C(=O)[C@H]([C@@H](C)CC)NC(=O)[C@H]([C@@H](C)O)NC(=O)[C@H](CC(=O)O)NC1=O | 0.985 nM | 3.49 nM | 11.8 nM | 
CC[C@H](C)[C@@H]1NC(=O)[C@@H](NC(=O)[C@H](CO)NC(=O)[C@@H](N)CCCNC(=N)N)CSSC[C@@H](C(=O)O)NC(=O)[C@H](CCCCN)NC(=O)CNC(=O)[C@@H]2CSSC[C@@H]3NC(=O)[C@H](CCC(N)=O)NC(=O)[C@H](Cc4ccccc4)NC(=O)[C@H](C)NC(=O)[C@H]([C@@H](C)O)NC(=O)[C@H](CSSC[C@H](NC(=O)[C@H](Cc4ccccc4)NC(=O)[C@H](CO)NC(=O)[C@H](CC(C)C)NC(=O)[C@H](CCCNC(=N)N)NC(=O)[C@H](Cc4ccc(O)cc4)NC(=O)[C@H](CCCCN)NC(=O)[C@H](CCSC)NC(=O)[C@H](CO)NC(=O)[C@H](Cc4cnc[nH]4)NC(=O)[C@H](CCCCN)NC3=O)C(=O)N[C@@H](CCCNC(=N)N)C(=O)N[C@@H](CCCCN)C(=O)N[C@@H]([C@@H](C)O)C(=O)N2)NC(=O)[C@H](CCCNC(=N)N)NC(=O)[C@H](CO)NC(=O)[C@H](CCCCN)NC(=O)[C@@H]2CCCN2C(=O)[C@H]([C@@H](C)CC)NC(=O)[C@H]([C@@H](C)O)NC(=O)[C@H](CC(=O)O)NC1=O | 0.153 nM | 0.067 nM | 0.136 nM | 
CC[C@H](C)[C@@H]1NC(=O)[C@@H](NC(=O)[C@H](CO)NC(=O)[C@@H](N)CCCNC(=N)N)CSSC[C@@H](C(=O)O)NC(=O)[C@H]([C@@H](C)O)NC(=O)CNC(=O)[C@@H]2CSSC[C@@H]3NC(=O)[C@H](CCCCN)NC(=O)[C@H](Cc4ccccc4)NC(=O)[C@H](C)NC(=O)[C@H]([C@@H](C)O)NC(=O)[C@H](CSSC[C@H](NC(=O)[C@H](Cc4ccccc4)NC(=O)[C@H](CO)NC(=O)[C@H](CC(C)C)NC(=O)[C@H](CCCNC(=N)N)NC(=O)[C@H](Cc4ccc(O)cc4)NC(=O)[C@H](CCCCN)NC(=O)[C@H](CCCCN)NC(=O)[C@H](CO)NC(=O)[C@H](Cc4cnc[nH]4)NC(=O)[C@H](CCCCN)NC3=O)C(=O)N[C@@H](CCCNC(=N)N)C(=O)N[C@@H](CCCCN)C(=O)N[C@@H]([C@@H](C)O)C(=O)N2)NC(=O)[C@H](CCCNC(=N)N)NC(=O)[C@H](CO)NC(=O)[C@H](CCCCN)NC(=O)[C@@H]2CCCN2C(=O)[C@H]([C@@H](C)CC)NC(=O)[C@H]([C@@H](C)O)NC(=O)[C@H](CC(=O)O)NC1=O |  | 0.249 nM | 5.68 nM | 0.13 nM
CCCC[C@@H]1NC(=O)[C@H](CO)NC(=O)[C@H](Cc2c[nH]cn2)NC(=O)[C@H](CCCCN)NC(=O)[C@@H]2CSSC[C@@H]3NC(=O)[C@H]([C@@H](C)O)NC(=O)[C@H](CCCCN)NC(=O)[C@H](CCCNC(=N)N)NC(=O)[C@H](CSSC[C@H](NC(=O)[C@H](CCCNC(=N)N)NC(=O)[C@H](CO)NC(=O)[C@H](CCCCN)NC(=O)[C@@H]4CCCN4C(=O)[C@H]([C@@H](C)CC)NC(=O)[C@H]([C@@H](C)O)NC(=O)[C@H](CC(=O)O)NC(=O)[C@H]([C@@H](C)CC)NC(=O)[C@@H](NC(=O)[C@H](CO)NC(=O)[C@@H](N)CCCNC(=N)N)CSSC[C@@H](C(=O)N[C@@H](C)C(=O)O)NC(=O)[C@H]([C@@H](C)O)NC(=O)CNC3=O)C(=O)N[C@@H]([C@@H](C)O)C(=O)N[C@@H](C)C(=O)N[C@@H](Cc3ccccc3)C(=O)N[C@@H](CCCCN)C(=O)N2)NC(=O)[C@H](Cc2ccccc2)NC(=O)[C@H](CO)NC(=O)[C@H](CC(C)C)NC(=O)[C@H](CCCNC(=N)N)NC(=O)[C@H](Cc2ccc(O)cc2)NC(=O)[C@H](CCCCN)NC1=O | 0.071 nM | 0.305 nM | 0.515 nM | 
CC[C@H](C)[C@@H]1NC(=O)[C@@H](NC(=O)[C@H](CO)NC(=O)[C@@H](N)CCCNC(=N)N)CSSC[C@@H](C(=O)O)NC(=O)[C@H]([C@@H](C)O)NC(=O)CNC(=O)[C@@H]2CSSC[C@@H]3NC(=O)[C@H](CCC(N)=O)NC(=O)[C@H](CCC(=O)O)NC(=O)[C@H](C)NC(=O)[C@H]([C@@H](C)O)NC(=O)[C@H](CSSC[C@H](NC(=O)[C@H](Cc4ccccc4)NC(=O)[C@H](CO)NC(=O)[C@H](CC(C)C)NC(=O)[C@H](CCCNC(=N)N)NC(=O)[C@H](Cc4ccc(O)cc4)NC(=O)[C@H](CCCCN)NC(=O)[C@H](CCSC)NC(=O)[C@H](CO)NC(=O)[C@H](C)NC(=O)[C@H](CCCCN)NC3=O)C(=O)N[C@@H](CCCNC(=N)N)C(=O)N[C@@H](CCCCN)C(=O)N[C@@H]([C@@H](C)O)C(=O)N2)NC(=O)[C@H](CCCNC(=N)N)NC(=O)[C@H](CO)NC(=O)[C@H](CCCCN)NC(=O)[C@@H]2CCCN2C(=O)[C@H]([C@@H](C)CC)NC(=O)[C@H]([C@@H](C)O)NC(=O)[C@H](CC(=O)O)NC1=O (H-RSCIDTIPKSRCTAEQCKASMKYRLSFCRKTCGTC-OH; disulfide 3-35, 12-28, 17-32) | 0.267 nM | 0.312 nM | 0.575 nM | 

Second part, led by results:

IC50 [1] | IC50 [2] | IC50 [3] | SMILES | IC50 ([1]; cho-k1)
0.193 nM | 0.108 nM | 0.193 nM | CC[C@H](C)[C@@H]1NC(=O)[C@@H](NC(=O)[C@H](CO)NC(=O)[C@@H](N)CCCNC(=N)N)CSSC[C@@H](C(=O)O)NC(=O)[C@H]([C@@H](C)O)NC(=O)CNC(=O)[C@@H]2CSSC[C@@H]3NC(=O)[C@H](CCC(N)=O)NC(=O)[C@H](Cc4ccccc4)NC(=O)[C@H](C)NC(=O)[C@H]([C@@H](C)O)NC(=O)[C@H](CSSC[C@H](NC(=O)[C@H](Cc4ccccc4)NC(=O)[C@H](CO)NC(=O)[C@H](CC(C)C)NC(=O)[C@H](CCCNC(=N)N)NC(=O)[C@H](Cc4ccc(O)cc4)NC(=O)[C@H](CCCCN)NC(=O)[C@H](CCSC)NC(=O)[C@H](CCCCN)NC(=O)[C@H](Cc4cnc[nH]4)NC(=O)[C@H](CCCCN)NC3=O)C(=O)N[C@@H](CCCNC(=N)N)C(=O)N[C@@H](CCCCN)C(=O)N[C@@H]([C@@H](C)O)C(=O)N2)NC(=O)[C@H](CCCNC(=N)N)NC(=O)[C@H](CO)NC(=O)[C@H](CCCCN)NC(=O)[C@@H]2CCCN2C(=O)[C@H]([C@@H](C)CC)NC(=O)[C@H]([C@@H](C)O)NC(=O)[C@H](CC(=O)O)NC1=O | 
0.798 nM | 3.59 nM | 4.82 nM | CC[C@H](C)[C@@H]1NC(=O)[C@@H](NC(=O)[C@H](CO)NC(=O)[C@@H](N)CCCNC(=N)N)CSSC[C@@H](C(=O)O)NC(=O)[C@H]([C@@H](C)O)NC(=O)CNC(=O)[C@@H]2CSSC[C@@H]3NC(=O)[C@H](CCC(N)=O)NC(=O)[C@H](Cc4ccccc4)NC(=O)[C@H](C)NC(=O)[C@H]([C@@H](C)O)NC(=O)[C@H](CSSC[C@H](NC(=O)[C@H](Cc4ccccc4)NC(=O)[C@H](CO)NC(=O)[C@H](CC(C)C)NC(=O)[C@H](CCCNC(=N)N)NC(=O)[C@H](Cc4ccc(O)cc4)NC(=O)[C@H](CCCCN)NC(=O)[C@H](CCCCN)NC(=O)[C@H](CO)NC(=O)[C@H](Cc4cnc[nH]4)NC(=O)[C@H](CCCCN)NC3=O)C(=O)N[C@@H](CCCNC(=N)N)C(=O)N[C@@H](CCCCN)C(=O)N[C@@H]([C@@H](C)O)C(=O)N2)NC(=O)[C@H](CCCNC(=N)N)NC(=O)[C@H](CO)NC(=O)[C@H](CCCCN)NC(=O)[C@@H]2CCCN2C(=O)[C@H]([C@@H](C)CC)NC(=O)[C@H]([C@@H](C)O)NC(=O)[C@H](CC(=O)O)NC1=O | 
0.122 nM | 0.273 nM | 0.496 nM | CC[C@H](C)[C@@H]1NC(=O)[C@@H](NC(=O)[C@H](CO)NC(=O)[C@@H](N)CCCNC(=N)N)CSSC[C@@H](C(=O)O)NC(=O)[C@H]([C@@H](C)O)NC(=O)CNC(=O)[C@@H]2CSSC[C@@H]3NC(=O)[C@H](CCC(N)=O)NC(=O)[C@H](Cc4ccccc4)NC(=O)[C@H](C)NC(=O)[C@H]([C@@H](C)O)NC(=O)[C@H](CSSC[C@H](NC(=O)[C@H](Cc4ccccc4)NC(=O)[C@H](CCCCN)NC(=O)[C@H](CC(C)C)NC(=O)[C@H](CCCNC(=N)N)NC(=O)[C@H](Cc4ccc(O)cc4)NC(=O)[C@H](CCCCN)NC(=O)[C@H](CCSC)NC(=O)[C@H](CO)NC(=O)[C@H](Cc4cnc[nH]4)NC(=O)[C@H](CCCCN)NC3=O)C(=O)N[C@@H](CCCNC(=N)N)C(=O)N[C@@H](CCCCN)C(=O)N[C@@H]([C@@H](C)O)C(=O)N2)NC(=O)[C@H](CCCNC(=N)N)NC(=O)[C@H](CO)NC(=O)[C@H](CCCCN)NC(=O)[C@@H]2CCCN2C(=O)[C@H]([C@@H](C)CC)NC(=O)[C@H]([C@@H](C)O)NC(=O)[C@H](CC(=O)O)NC1=O | 
0.293 nM | 0.041 nM | 0.071 nM | CC[C@H](C)[C@@H]1NC(=O)[C@@H](NC(=O)[C@H](CO)NC(=O)[C@@H](N)CCCNC(=N)N)CSSC[C@@H](C(=O)O)NC(=O)[C@H]([C@@H](C)O)NC(=O)CNC(=O)[C@@H]2CSSC[C@@H]3NC(=O)[C@H](CCC(N)=O)NC(=O)[C@H](Cc4ccccc4)NC(=O)[C@H](C)NC(=O)[C@H]([C@@H](C)O)NC(=O)[C@H](CSSC[C@H](NC(=O)[C@H](Cc4ccccc4)NC(=O)[C@H](CO)NC(=O)[C@H](CC(C)C)NC(=O)[C@H](CCCNC(=N)N)NC(=O)[C@H](Cc4ccc(O)cc4)NC(=O)[C@H](CCCCN)NC(=O)[C@H](CCSC)NC(=O)[C@H](CO)NC(=O)[C@H](Cc4cnc[nH]4)NC(=O)[C@H](CCCCN)NC3=O)C(=O)N[C@@H](CCCCN)C(=O)N[C@@H](CCCCN)C(=O)N[C@@H]([C@@H](C)O)C(=O)N2)NC(=O)[C@H](CCCNC(=N)N)NC(=O)[C@H](CO)NC(=O)[C@H](CCCCN)NC(=O)[C@@H]2CCCN2C(=O)[C@H]([C@@H](C)CC)NC(=O)[C@H]([C@@H](C)O)NC(=O)[C@H](CC(=O)O)NC1=O | 

— ChEMBL document CHEMBL3608278 (J Med Chem, 2015)
